Measurements: patent US20080200556A1, “Amine Compounds And Inhibiting Neurotrasmitter Reuptake” (MAYO FOUNDATION FOR MEDICAL EDUCATION AND RESEARCH, priority 2004, published 2008)

Tests used:
[1] = target: human dopamine transporter (hDAT) (Homo sapiens, UniProt Q01959); test: biochemical
Procedure: (§1) The cells were incubated in 10% CO2, 90% air at 37° C. and 100% humidity. The hNET cell cultures contained 250 μg/mL geneticin sulfate. The cells were grown to 70-80% confluency prior to harvesting.
(§2) Cell membranes containing hSERT, hNET, or hDAT were prepared from the cell lines to assay ligand binding for each of the transporters. […] The washed cells were incubated for 5 minutes at 37° C. in 10 mL solution 1 containing 100 mM ethylene glycol-bis N,N,N′,N′-tetraacetic acid (EGTA). The cells were then scraped from the flask surface with a rubber spatula, placed into a centrifuge tube, and collected by centrifugation at 1000×g for 5 minutes at 4° C. The resulting supernatant was discarded, and the cell pellet was resuspended in 0.5 to 1.0 mL of the appropriate binding buffer (described below). The resuspended cell pellet was homogenized using a Polytron for 10 seconds at setting 6. The resulting homogenate was centrifuged at about 36,000×g for 10 minutes at 4° C. The supernatant was discarded, and the pellet was resuspended in the same volume of the appropriate binding buffer and centrifuged again. […]
To assess binding to the cloned HDAT, cells expressing HDAT were homogenized in 50 mM Tris-HCl with 120 mM NaCl (pH 7.4). […] Radioactivity was measured with a Beckman liquid scintillation counter (LS 5000TD). […]

Male Sprague-Dawley rats = test: Forced swim test in rats; type: in vivo, rat; conditions: i.p., imipramine 15 mg/kg, PRC025 10 mg/kg; for Time immobile (Counts/5 min) / Time swimming (Counts/5 min): mean ±SEM, *P < 0.05 vs. saline
Procedure: When rats are placed in a cylinder of water from which they cannot escape, they will remain immobile in the water for the majority of the test.
Water was changed between trials, and the procedure involved a pretest and a 5-minute test separated by 24 hours. During the pretest, rats (adapted to the experimental room for no less than 1 hour) were placed in the cylinder for 15 minutes. Following this initial exposure, the rats were dried with towels and transferred to a “drying cage” situated under a warming lamp. […] The following day, rats were transferred to the experimental room and acclimated for at least 1 hour.
The rat was considered immobile when floating motionless or making only those movements necessary to keep its head above the surface of the water. Scores for each behavior (swimming or immobility) were expressed as total counts per […]. Statistical analysis was performed using ANOVA followed by the Tukey test for post-hoc comparisons.

Male C57B1/6J mice = test: Tail suspension test in mice; type: in vivo, mouse; conditions: PRC025 10 mg/kg; for Time immobile (Counts/6 min) / Time mobile (Counts/6 min): i.p. 30 minutes before testing, imipramine 15 mg/kg (table), mean ±SEM, *P < 0.05 vs. saline
Description: When mice are suspended by their tail, there is an initial period of agitation, followed by immobility. This test identifies antidepressant compounds, which decrease the duration of immobility.
Mice were then individually suspended by their tails 35 cm above the tabletop using an adhesive tape placed 1 cm from the tip of the tail. Behavior was scored every 5 seconds throughout the 6-minute test as either mobile or immobile. Mice were considered immobile only when hanging passively and completely motionless. Scores for each behavior were expressed as total counts per […]. Statistical analysis was performed using ANOVA followed by the Tukey test for post-hoc comparisons.

[2] = target: T1, human serotonin transporter (hSERT) (Homo sapiens, UniProt P31645)
T1 sequence (P31645 whole entry): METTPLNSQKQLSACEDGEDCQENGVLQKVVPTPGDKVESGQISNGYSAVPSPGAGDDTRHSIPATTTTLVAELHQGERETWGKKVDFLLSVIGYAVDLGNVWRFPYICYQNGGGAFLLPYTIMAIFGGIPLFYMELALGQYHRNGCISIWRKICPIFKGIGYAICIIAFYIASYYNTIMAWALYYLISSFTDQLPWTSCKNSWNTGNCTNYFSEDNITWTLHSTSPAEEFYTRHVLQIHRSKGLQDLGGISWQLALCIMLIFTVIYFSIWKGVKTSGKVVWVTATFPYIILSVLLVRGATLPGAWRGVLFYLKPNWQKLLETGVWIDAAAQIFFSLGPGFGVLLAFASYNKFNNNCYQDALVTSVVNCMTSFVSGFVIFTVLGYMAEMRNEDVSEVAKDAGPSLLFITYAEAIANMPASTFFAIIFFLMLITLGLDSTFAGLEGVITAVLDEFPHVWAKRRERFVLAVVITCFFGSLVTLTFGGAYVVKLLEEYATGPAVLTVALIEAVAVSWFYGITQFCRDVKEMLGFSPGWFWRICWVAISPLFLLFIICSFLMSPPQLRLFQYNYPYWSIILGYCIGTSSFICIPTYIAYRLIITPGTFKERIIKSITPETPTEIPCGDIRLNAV
Procedure: as §1, §2
(§3) Radioligand binding assays for the indicated transporters were performed as follows. […] Radioactivity was measured with a Beckman liquid scintillation counter (LS 5000TD). […]

[3] = target: T1, human serotonin transporter (hSERT); test: biochemical
Procedure: as §1, §2, §3

SMILES | Kd [1] | Time immobile (Counts/5 min) (Male Sprague-Dawley rats) | Time swimming (Counts/5 min) (Male Sprague-Dawley rats) | Time immobile (Counts/6 min) (Male C57B1/6J mice) | Time mobile (Counts/6 min) (Male C57B1/6J mice) | binding to hSERT (in words) [2] | Kd [3] | swimming behavior versus saline (in words) (Male Sprague-Dawley rats) | mobile behavior versus saline (in words) (Male C57B1/6J mice; i.p., imipramine)
CNCC(c1ccc2ccccc2c1)C(O)c1ccccc1 (racemic) [Compound A, (2RS,3RS)-N-methyl-3-hydroxy-2-(2′-naphthyl)-3-phenylpropylamine] | 134 nM |  |  |  |  |  |  |  | 
CN(C)CC(c1ccc2ccccc2c1)C(O)C1CCCCC1 (racemic) [PRC025, (2RS,3SR)-N,N-dimethyl-3-cyclohexyl-3-hydroxy-2-(2′-naphthyl)propylamine] | 54 nM | 28 ± 3* Counts/5 min | 30 ± 3* Counts/5 min | 12 ± 3* Counts/6 min | 60 ± 3* Counts/6 min | strong binding | 4.1 nM |  | 
CN(C)CCCN1c2ccccc2CCc2ccccc21 [Imipramine, imipramine] |  | 23 ± 3* Counts/5 min | 37 ± 3* Counts/5 min | 21 ± 4* Counts/6 min | 51 ± 4* Counts/6 min |  |  | statistically more swimming behavior than rats treated with saline | statistically more mobile behavior than mice treated with saline
